Activity calls are given as the source filed them.
Assays:
[1] = target: T1, Tyrosyl-DNA phosphodiesterase 2 (Homo sapiens, UniProt O95551); experiment: human TDP2 enzyme inhibitors, dose response, biochemical, epi absorbance, IC50 (AID 743297)
T1 sequence (O95551 whole entry): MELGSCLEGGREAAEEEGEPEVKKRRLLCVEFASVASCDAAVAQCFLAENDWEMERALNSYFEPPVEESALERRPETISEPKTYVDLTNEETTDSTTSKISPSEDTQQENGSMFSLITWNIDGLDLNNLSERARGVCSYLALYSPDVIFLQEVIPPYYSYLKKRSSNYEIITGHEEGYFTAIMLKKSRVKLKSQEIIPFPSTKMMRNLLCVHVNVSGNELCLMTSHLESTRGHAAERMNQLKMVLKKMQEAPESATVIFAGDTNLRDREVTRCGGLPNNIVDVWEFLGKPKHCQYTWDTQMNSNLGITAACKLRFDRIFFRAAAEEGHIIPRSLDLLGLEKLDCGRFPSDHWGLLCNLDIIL

[2] = target: T2, Replicative DNA helicase DnaB (Mycobacterium tuberculosis, UniProt P9WMR3); experiment: DnaB intein splicing inhibitors, dose response, biochemical, cell-free fluorescence (AID 449749); assay type: functional
T2 sequence (P9WMR3 whole entry): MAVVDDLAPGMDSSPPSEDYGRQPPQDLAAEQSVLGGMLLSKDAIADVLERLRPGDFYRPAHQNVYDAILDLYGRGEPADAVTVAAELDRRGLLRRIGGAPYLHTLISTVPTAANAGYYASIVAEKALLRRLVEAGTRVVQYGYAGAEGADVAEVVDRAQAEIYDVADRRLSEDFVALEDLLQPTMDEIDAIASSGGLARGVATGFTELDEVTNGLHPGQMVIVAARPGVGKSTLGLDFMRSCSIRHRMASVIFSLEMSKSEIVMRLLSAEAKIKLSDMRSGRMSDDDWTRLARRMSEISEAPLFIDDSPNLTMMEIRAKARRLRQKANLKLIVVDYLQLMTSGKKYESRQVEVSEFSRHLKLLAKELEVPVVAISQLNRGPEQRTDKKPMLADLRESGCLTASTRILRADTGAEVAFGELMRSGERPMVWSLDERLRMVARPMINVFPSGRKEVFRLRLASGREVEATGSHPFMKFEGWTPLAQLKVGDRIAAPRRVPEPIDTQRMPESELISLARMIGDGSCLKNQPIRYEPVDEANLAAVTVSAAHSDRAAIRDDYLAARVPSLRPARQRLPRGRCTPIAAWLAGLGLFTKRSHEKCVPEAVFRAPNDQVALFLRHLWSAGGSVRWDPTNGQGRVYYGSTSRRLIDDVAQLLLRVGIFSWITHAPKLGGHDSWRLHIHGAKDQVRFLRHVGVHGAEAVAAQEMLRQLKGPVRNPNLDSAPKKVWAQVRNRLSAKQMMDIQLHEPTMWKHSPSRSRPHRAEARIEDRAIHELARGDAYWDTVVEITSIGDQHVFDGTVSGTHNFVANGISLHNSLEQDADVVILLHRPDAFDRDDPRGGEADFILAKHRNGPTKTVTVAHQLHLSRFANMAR

[3] = target: Delta-type opioid receptor (Homo sapiens, UniProt P41143); experiment: Counterscreen for agonists of heterodimerization of the mu 1 (OPRM1) and delta 1 (OPRD1) opioid receptors: Luminescence-based cell-based high throughput dose response assay to identify agonists of OPRD1 homodimerization. [Related pubchem assays (depositor defined):AID504326, AID504355, AID504692, AID504904, AID504905]; assay type: functional
[4] = target: T3, Sentrin-specific protease 8 (Homo sapiens, UniProt Q96LD8); assay type: functional;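 further: luminescence read-out of SENP8 inhibition, dose-response confirmation following an ultra-high-throughput screen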
T3 sequence (Q96LD8 whole entry): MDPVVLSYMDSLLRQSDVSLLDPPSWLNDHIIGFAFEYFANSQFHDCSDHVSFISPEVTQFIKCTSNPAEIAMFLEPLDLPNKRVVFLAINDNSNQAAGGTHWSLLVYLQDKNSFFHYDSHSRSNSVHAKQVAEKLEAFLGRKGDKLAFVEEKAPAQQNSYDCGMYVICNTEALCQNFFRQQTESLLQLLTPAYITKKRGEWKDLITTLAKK

[5] = target: Heat shock protein HSP 90-alpha (Homo sapiens, UniProt P07900); assay type: functional, organism-based
[6] = test system: HEK293; experiment: NOD2 signaling inhibitors in MDP-stimulated cells, cell-based, uHTS, luminescence (AID 2001); assay type: functional; details: Homo sapiens
[7] = target: T4, Sentrin-specific protease 6 (Homo sapiens, UniProt Q9GZR1); experiment: SAR Analysis of small molecule inhibitors of Sentrin-specific protease 6 (SENP6) using a Luminescent assay. [Related pubchem assays (depositor defined):AID2582, AID2599]; assay type: functional
T4 sequence (Q9GZR1 whole entry): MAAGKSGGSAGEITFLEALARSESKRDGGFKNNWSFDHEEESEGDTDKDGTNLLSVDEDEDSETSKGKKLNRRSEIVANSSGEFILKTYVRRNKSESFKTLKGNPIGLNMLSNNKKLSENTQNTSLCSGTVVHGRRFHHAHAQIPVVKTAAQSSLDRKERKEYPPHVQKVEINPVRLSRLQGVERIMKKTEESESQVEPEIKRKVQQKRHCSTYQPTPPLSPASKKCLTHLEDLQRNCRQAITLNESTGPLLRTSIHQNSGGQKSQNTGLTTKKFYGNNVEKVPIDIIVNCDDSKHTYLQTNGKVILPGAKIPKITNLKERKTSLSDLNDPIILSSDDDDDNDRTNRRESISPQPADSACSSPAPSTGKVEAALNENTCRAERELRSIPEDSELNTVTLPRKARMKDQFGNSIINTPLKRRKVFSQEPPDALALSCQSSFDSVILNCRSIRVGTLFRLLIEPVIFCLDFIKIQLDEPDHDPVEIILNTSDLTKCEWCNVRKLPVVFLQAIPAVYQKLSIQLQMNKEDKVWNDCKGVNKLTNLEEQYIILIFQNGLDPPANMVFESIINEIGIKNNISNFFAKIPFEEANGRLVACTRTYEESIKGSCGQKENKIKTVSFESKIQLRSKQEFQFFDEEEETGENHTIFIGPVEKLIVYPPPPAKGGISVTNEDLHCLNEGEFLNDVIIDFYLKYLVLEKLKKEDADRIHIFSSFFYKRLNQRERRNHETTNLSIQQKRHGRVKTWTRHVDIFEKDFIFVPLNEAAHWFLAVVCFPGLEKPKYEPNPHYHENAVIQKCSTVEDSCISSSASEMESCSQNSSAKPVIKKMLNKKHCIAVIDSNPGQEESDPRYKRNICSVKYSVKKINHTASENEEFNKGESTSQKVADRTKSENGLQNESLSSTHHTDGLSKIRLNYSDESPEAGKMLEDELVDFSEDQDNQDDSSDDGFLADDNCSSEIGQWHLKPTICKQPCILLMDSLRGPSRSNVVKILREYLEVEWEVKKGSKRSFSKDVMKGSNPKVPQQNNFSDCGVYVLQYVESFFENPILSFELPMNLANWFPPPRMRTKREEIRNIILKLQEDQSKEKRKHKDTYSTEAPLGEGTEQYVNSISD

[8] = target: T3, Sentrin-specific protease 8; experiment: SENP8 protease inhibitors, SAR follow-up, biochemical, luminescence (AID 504501); assay type: functional
[9] = cytotoxicity toward NIH3T3 fibroblasts, dose response, counter-screen, cell-based, ATP luminescence, mouse fibroblasts (AID 2010); assay type: functional;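 further: cells exposed to compound for about 90 hours before reading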

Chain of Delta-type opioid receptor (P41143 whole entry): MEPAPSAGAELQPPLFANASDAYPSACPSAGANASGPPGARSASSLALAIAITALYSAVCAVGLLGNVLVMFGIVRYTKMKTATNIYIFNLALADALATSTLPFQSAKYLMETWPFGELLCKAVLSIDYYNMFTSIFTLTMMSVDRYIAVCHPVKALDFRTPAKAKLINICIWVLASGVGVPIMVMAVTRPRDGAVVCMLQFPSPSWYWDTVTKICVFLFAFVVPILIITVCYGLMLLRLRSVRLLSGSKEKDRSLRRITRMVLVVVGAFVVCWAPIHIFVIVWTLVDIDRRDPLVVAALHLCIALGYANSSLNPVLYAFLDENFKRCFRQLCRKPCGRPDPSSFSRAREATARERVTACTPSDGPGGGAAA

Row | Compound | IC50 [1] | AC50 [2] | IC50 [4] | other results
1 | COC(=O)c1cccc(-c2ccc(C(c3c(C)n[nH]c3O)c3c(C)n[nH]c3O)o2)c1 | > 128 µM (inactive) | 0.398 µM (active) | – | –
2 | Cc1cc(/C=C2\SC(=S)N(C)C2=O)c(C)n1-c1ccc(O)cc1 | – | – | 8.79 µM (active) | EC50 [3]: 15.1 µM (inactive); AC50 [5]: 8.02 µM (active); IC50 [6]: 6.54 µM (inactive)
3 | Cc1ccc(C(=O)NNc2cc(N3CCCC3)nc(N3CCCC3)n2)cc1 | – | – | 4.6 µM (active) | IC50 [7]: 2.3 µM (active); IC50 [8]: 4.39 µM (active); EC50 [9]: > 30 µM (not active)
4 | O=C1/C(=N\c2cccc(O)c2)C(N2CCCCC2)=C(O)c2ccccc21 | > 42.8 µM (inactive) | 5.58 µM (active) | – | –

Reference: ChEMBL document CHEMBL1201862, “PubChem BioAssay data set” (2004)
